The target in the assay is human P2X7 receptor (Homo sapiens, UniProt Q99572, R270H/Y155H). Description: Evaluation of human P2X7 receptor inhibitory activity (Yo-Pro uptake, BzATP stimulation, FLIPR TETRA). The format is cell-based. Here is the method:
Stably expressing cell line (1321N1 cell transfected with the human P2X7 receptor gene (GenBank accession number NM_002562.5 including T606C and G952A SNP)) was used. The cells were seeded in a 384-well microtiter plate at a concentration of 8000 cells/well and cultured in the medium (10% fetal bovine serum, 25 mM HEPES, 1% penicillin and streptomycin in DMEM) for one day at 37° C. under 5% carbon dioxide atmosphere. After replacing with 20 μL of the HBSS buffer (20 mM HEPES, 55.6 mM D-glucose, 1×HBSS(−), pH7.4-7.5), 15 μL of 17.3 μM Yo-Pro solution in the HBSS buffer was added. The plate was placed in high-throughput cellular screening system FLIPR TETRA (Molecullar Devices, LLC.) and 15 μL of 130 μM BzATP solution in the HBSS buffer was added. Measurement of fluorescence intensity by FLIPR TETRA was started. After eight minutes, 15 μL of DMSO solutions containing different concentrations of the compound of the present invention as prepared by dilution with the HBSS buffer were dispensed to each well through the built-in automatic dispenser, and the measurement of fluorescence intensity was continued for 20 minutes. […] Changing values of fluorescence intensity by the compound of the present invention were calculated by difference between maximum and minimum fluorescence intensity for 20 minutes. Inhibition ratios (%) were calculated from the following equation:
[formula] IC50 was calculated using logistic approximation.

[1] abbreviates: antagonistic activity for the human P2X7 receptor, read-out: IC50.
Where [2] appears, read: 1321N1 cells stably expressing human P2X7 receptor, BzATP stimulation, Yo-Pro uptake, read-out: IC50 (antagonistic activity for the human P2X7 receptor).
[3] abbreviates: 1321N1 cells stably expressing human P2X7 receptor, BzATP stimulation, Yo-Pro uptake, read-out: IC50 (antagonistic activity for the human P2X7 receptor), class symbol.

Where two headings read alike, the source gives them in different places.

What is called IC50 is the concentration needed to halve the response being measured.

With `COc1cn(Cc2cc(F)cc(F)c2)c(Nc2cc(-c3cscn3)ccc2C)nc1=O` [Compound I-0753], under setting [1], the IC50 is under 0.01 µM.
As to `COc1cn(Cc2cc(F)cc(F)c2)c(Nc2cccc(SC)c2C)nc1=O` [Compound I-0550], the IC50 under setting [2] stood at 0.002 µM.
As to `COc1cn(Cc2cccc(F)c2)c(Nc2cccc(C)c2Cl)nc1=O` [Compound I-0643], the IC50 under setting [1] lay within 0.01 to 0.1 µM.
The same measure, in the same setting: with `COCCn1ccc2c(C)c(Nc3nc(=O)c(F)cn3Cc3cc(F)cc(F)c3)ccc21` [Compound I-1229] the figure was under 0.01 µM.
For `Cc1c(Cl)cccc1Nc1nc(=O)c(OCC(F)(F)F)cn1Cc1ccccc1` [Compound I-0016], under setting [3], the IC50 lay within 0.01 to 0.1 µM.
Take `Cc1ccc(Cl)c(Nc2nc(=O)c(F)cn2Cc2cc(F)c(F)c(F)c2)c1` [Compound I-1195]: under setting [1], the IC50 is under 0.01 µM.
Take `COc1cn(Cc2ccccc2OC(F)F)c(Nc2cccc(Cl)c2C)nc1=O` [Compound I-0474]: the half-inhibitory concentration (IC50) under setting [3] is under 0.01 µM.
On the same count and under the same terms, with `COc1cn(Cc2ccc(Cl)c(F)c2)c(Nc2cccc(Cl)c2C)nc1=O` [Compound I-0280] the figure was 0.01 to 0.1 µM.
As to `Cc1c(Nc2nc(=O)ccn2Cc2cc(F)cc(F)c2)ccc2[nH]ccc12` [Compound I-1171], under setting [1], the IC50 is under 0.01 µM.
In the case of `COc1cn(Cc2cc(F)cc(Cl)c2)c(Nc2cccc(C)c2Cl)nc1=O` [Compound I-0577], the IC50 under setting [3] is 0.01 to 0.1 µM.
Still for that read-out and setting: with `CCOc1cc(C)c(Nc2nc(=O)c(OC)cn2Cc2cccc(F)c2)cc1C` [Compound I-0257] the figure was under 0.01 µM.
Same read-out and setting: with `COc1cn(Cc2cc(F)cc(F)c2)c(Nc2cc3sc(C)nc3cc2C)nc1=O` [Compound I-0553] the figure was 0.01 to 0.1 µM.
Regarding `Cc1ccc(-c2ncco2)cc1Nc1nc(=O)c(F)cn1Cc1ccc(F)c(Cl)c1` [Compound I-0849], the IC50 under setting [2] is 0.003 µM.
On to `COc1cn(Cc2ccc(F)c(Cl)c2)c(N[C@@H]2CCCc3ccccc32)nc1=O` [Compound I-0336], for which, under setting [2], the IC50 came to 0.12 µM.
Regarding `COc1cc(C)cc(Nc2nc(=O)c(OC)cn2Cc2ccc(F)cc2)c1C` [Compound I-0560], the IC50 under setting [3] was under 0.01 µM.
On to `COc1cn(Cc2cc(F)cc(F)c2)c(Nc2cc(N3CCCC3)ccc2C)nc1=O` [Compound I-0885], for which, under setting [1], the IC50 lay within 0.01 to 0.1 µM.
On to `COc1ccc(Nc2nc(=O)c(OC)cn2Cc2ccccc2)c(C)c1C` [Compound I-0499], for which the concentration for half-maximal inhibition (IC50) under setting [3] fell in the range of 0.01 to 0.1 µM.
`COc1cn(Cc2ccccc2)c(Nc2cccc3c2CCCC3)nc1=O` [Compound I-0190]: the IC50 under setting [2] was 0.071 µM.
With `C=C(C)c1ccc(C)c(Nc2nc(=O)c(OC)cn2Cc2cc(F)cc(F)c2)c1` [Compound I-0749], under setting [1], the IC50 was 0.01 to 0.1 µM.
Turning to `COc1cc(C)c(Nc2nc(=O)c(F)cn2Cc2ccccc2)cc1C` [Compound I-0318], the IC50 under setting [3] was under 0.01 µM.
Regarding `COc1cn(Cc2ccc(F)c(Cl)c2)c(Nc2cc(Cl)cc3[nH]ccc23)nc1=O` [Compound I-0819], the IC50 under setting [1] fell in the range of 0.01 to 0.1 µM.
For the compound `CCc1cc(F)c(OC)cc1Nc1nc(=O)c(OC)cn1Cc1ccc(F)c(Cl)c1` [Compound I-0814], under setting [1], the IC50 was under 0.01 µM.
The same measure, in the same setting: with `COCc1cc(=O)nc(Nc2cc(OC)c(OC)cc2C)n1Cc1cc(F)c(F)c(F)c1` [Compound I-1147] the figure was 0.01 to 0.1 µM.
For `COc1c(C)ccc(Nc2nc(=O)c(OC)cn2Cc2cc(F)cc(F)c2)c1C` [Compound I-0540], the IC50 under setting [3] is under 0.01 µM.
On to `COc1cnc(Nc2cc(C)c(Cl)cc2C)n(Cc2ccccc2)c1=O` [Compound I-0981], for which the IC50 under setting [1] was 0.5 to 1 µM.
As for `COc1cn(Cc2cc(F)cc(F)c2)c(Nc2ccc(OC(C)C)cc2C)nc1=O` [Compound I-0531], the IC50 under setting [3] was in the range of 0.01 to 0.1 µM.
For `Cc1cc2cc(Nc3nc(=O)c(F)cn3Cc3ccc(F)c(Cl)c3)c(C)cc2[nH]1` [Compound I-1055], under setting [1], the IC50 is 0.01 to 0.1 µM.
Same read-out and setting: with `COc1cn(Cc2ccc(F)c(F)c2)c(Nc2cc3ncccc3cc2C)nc1=O` [Compound I-0772] the figure was 0.01 to 0.1 µM.
Consider `CCc1c(Nc2nc(=O)c(F)cn2Cc2ccc(F)c(Cl)c2)cc(OC)cc1OC` [Compound I-0316], for which the IC50 under setting [3] is under 0.01 µM.
Take `O=c1nc(Nc2cccc3[nH]ccc23)n(Cc2ccc(F)c(F)c2)cc1F` [Compound I-1025]: under setting [1], the IC50 was under 0.01 µM.
On the same count and under the same terms, with `Cc1nc2cc(C)c(Nc3nc(=O)c(CCO)cn3Cc3cc(F)c(F)c(F)c3)cc2s1` [Compound I-1088] the figure was 0.01 to 0.1 µM.
As to `COc1cn(Cc2ccccc2)c(Nc2cccc(C(F)(F)F)c2Cl)nc1=O` [Compound I-0036], under setting [3], the half-inhibitory concentration (IC50) was in the range of 0.1 to 0.5 µM.
The same measure, in the same setting: with `CCc1ccccc1CNc1nc(=O)c(OC)cn1Cc1cc(F)cc(F)c1` [Compound I-0454] the figure was 0.01 to 0.1 µM.
`Cc1cc(C)c(Nc2nc(=O)c(C(N)=O)cn2Cc2ccccc2)cc1C` [Compound I-0218]: the IC50 under setting [2] is 0.019 µM.
Take `Cc1cc(Nc2nc(=O)c(F)cn2Cc2cc(F)cc(F)c2)c(C)cc1Cl` [Compound I-1206]: the concentration for half-maximal inhibition (IC50) under setting [1] was under 0.01 µM.
As to `CCOc1cc(C)c(Nc2nc(=O)c(OC)cn2Cc2cc(F)cc(F)c2)cc1C` [Compound I-0383], under setting [3], the IC50 is under 0.01 µM.
As to `COc1cn(Cc2ccccc2)c(Nc2ccccc2SC)nc1=O` [Compound I-0382], the IC50 under setting [2] came out at 0.35 µM.
In the case of `COc1cn(Cc2ccccc2)c(NCc2ccccc2Oc2ccc(C)cc2)nc1=O` [Compound I-0066], the IC50 under setting [3] lay in the range of 0.5 to 1 µM.
With `C#Cc1cc(Nc2nc(=O)c(OC)cn2Cc2cc(F)cc(F)c2)c(C)cc1F` [Compound I-0915], the IC50 under setting [1] fell in the range of 0.01 to 0.1 µM.
The same measure, in the same setting: with `COc1ccc(C)c(Nc2cc(=O)c(OC)cn2Cc2ccc(F)c(Cl)c2)c1` [Compound I-0947] the figure was 0.01 to 0.1 µM; with `COc1ccc(Cl)c(Nc2cc(=O)c(OC)cn2Cc2ccc(F)c(Cl)c2)c1` [Compound I-0955], 0.01 to 0.1 µM.
On to `COc1ccccc1Cn1cc(OC)c(=O)nc1Nc1cccc(Cl)c1C` [Compound I-0054], for which the IC50 under setting [3] fell in the range of 0.1 to 0.5 µM.
Consider `COc1ccc(Nc2nc(=O)cnn2Cc2cc(F)c(F)c(F)c2)c(C)c1` [Compound I-1283], for which the IC50 under setting [1] is under 0.01 µM.
Consider `COc1cn(Cc2cc(C)cc(F)c2)c(Nc2cccc(Cl)c2C)nc1=O` [Compound I-0425], for which the IC50 under setting [2] is 0.019 µM.
Consider `COc1cc(C)c(Nc2nc(=O)c(C)nn2Cc2cc(F)c(F)c(F)c2)cc1OC` [Compound I-1266], for which the IC50 under setting [1] lay within 0.01 to 0.1 µM.
As for `COc1cn(Cc2cc(F)c(F)c(F)c2)c(Nc2cccc3c(=O)[nH]ccc23)nc1=O` [Compound I-0603], the IC50 under setting [1] was 0.01 to 0.1 µM.
Take `COc1cn(Cc2cccc(F)c2)c(Nc2cc3c(cc2C)OCCO3)nc1=O` [Compound I-0288]: the IC50 under setting [3] lay in the range of 0.01 to 0.1 µM.
Same read-out and setting: with `COc1cn(Cc2cc(F)cc(F)c2)c(Nc2cc(C)c(Cl)cc2C)nc1=O` [Compound I-0378] the figure was under 0.01 µM; with `COc1cn(Cc2ccc(F)c(Cl)c2)c(Nc2cc(-c3nnco3)ccc2C)nc1=O` [Compound I-0379], under 0.01 µM.
As for `COc1cn(Cc2ccccc2)c(Nc2cc(S(C)(=O)=O)cc(C)c2C)nc1=O` [Compound I-0754], under setting [1], the IC50 was 0.01 to 0.1 µM.
With `COc1cn(Cc2ccccc2)c(Nc2ccccc2Cc2ccccc2)nc1=O` [Compound I-0118], under setting [3], the IC50 was 0.01 to 0.1 µM.
In the case of `COc1cn(Cc2cc(F)c(F)c(F)c2)c(Nc2cc(C)c(OC(F)(F)F)cc2C)nc1=O` [Compound I-0925], the IC50 under setting [1] lay in the range of 0.01 to 0.1 µM.
Regarding `CCc1ccccc1Nc1nc(=O)c(F)cn1Cc1cccc(Cl)c1` [Compound I-0223], the IC50 under setting [3] was in the range of 0.01 to 0.1 µM.
Take `O=c1nc(Nc2cccc3cnccc23)n(Cc2cc(F)c(F)c(F)c2)cc1F` [Compound I-1096]: under setting [1], the IC50 was 0.01 to 0.1 µM.
On to `COc1cn(Cc2ccc(F)c(F)c2)c(Nc2ccc(N3CCOCC3)cc2C)nc1=O` [Compound I-0519], for which the IC50 under setting [3] was 0.01 to 0.1 µM.
`Cc1ccc(CO)cc1Nc1nc(=O)c(F)cn1Cc1ccc(F)c(Cl)c1` [Compound I-1013]: the IC50 under setting [1] was under 0.01 µM.
For `CCc1ccccc1Nc1nc(=O)c(Cl)cn1Cc1ccccc1` [Compound I-0105], the IC50 under setting [3] fell in the range of 0.1 to 0.5 µM.
As to `O=C1CCCc2c(Nc3nc(=O)c(Cl)cn3Cc3cc(F)c(F)c(F)c3)cccc21` [Compound I-1162], the IC50 under setting [1] was under 0.01 µM.
Turning to `COc1cn(Cc2ccccc2)c(Nc2cc(C)cc(C)c2C)nc1=O` [Compound I-0298], under setting [3], the IC50 was 0.01 to 0.1 µM.
Still for that read-out and setting: with `Cc1c(Cl)cccc1Nc1nc(=O)c(F)cn1Cc1ccc(F)cc1` [Compound I-0041] the figure was under 0.01 µM; with `Cc1cccc(Nc2nc(=O)c(Br)cn2Cc2ccccc2)c1C` [Compound I-0108], 0.01 to 0.1 µM.
`Cc1cc(C)c(Nc2nc(=O)c(F)cn2Cc2cc(F)c(F)c(F)c2)cc1CO` [Compound I-1110]: the IC50 under setting [1] was under 0.01 µM.
On the same count and under the same terms, with `COc1cn(Cc2ccc(F)c(F)c2)c(Nc2cc(-c3ncco3)ccc2C)nc1=O` [Compound I-0604] the figure was under 0.01 µM.
`COc1cn(Cc2ccc(F)c(Cl)c2)c(Nc2cc(C)c(C)cc2C)nc1=O` [Compound I-0358]: the IC50 under setting [2] is 0.16 µM.
For the compound `COc1cn(Cc2ccc(F)c(Cl)c2)c(Nc2ccc3[nH]ccc3c2C)nc1=O` [Compound I-0584], the IC50 under setting [1] is under 0.01 µM.
Regarding `COc1cc(C)c(Nc2cc(=O)c(OC)cn2Cc2ccccc2)cc1C` [Compound I-0945], the IC50 under setting [2] stood at 0.17 µM.

For the origin of these results see patent publication US10774051B2, “6-membered heterocyclic derivatives and pharmaceutical composition comprising the same” (Shionogi & Co., Ltd., priority 2015, dated 2020).
